Measured values: patent US6531610B1 (Abbott Laboratories, priority 1989, dated 2003)

test system: HIV-13B in MT4 cells; assay: Antiviral activity: inhibition of the cytopathic effect of HIV in MT4 cells; assay type: cell-based, HIV-1; conditions: Human immunodeficiency virus 1, MT4

SMILES | IC50 [nM]
CCCN(Cc1csc(C(C)C)n1)C(=O)N[C@@H](C)C(=O)N[C@@H](Cc1ccccc1)C[C@H](O)[C@H](Cc1ccccc1)NC(=O)OCc1cncs1 [Example 54] | 110 to 170

same assay, conditions: Human immunodeficiency virus 1, MT4; read-out: IC50

SMILES | IC50 [nM]
Cc1ncc(COC(=O)N[C@@H](Cc2ccccc2)[C@@H](O)C[C@H](Cc2ccccc2)NC(=O)[C@@H](NC(=O)N(C)Cc2csc(C(C)C)n2)C(C)C)s1 [Example 28, (2S,3S,5S)-5-(N-(N-((N-Methyl-N-((2-isopropyl-4-thiazolyl)methyl)amino)carbonyl)valinyl)amino)-2-(N-((2-methyl-5-thiazolyl)methoxycarbonyl)amino)-1,6-diphenyl-3-hydroxyhexane] | 110 to 120
CC(C)c1nc(CCOC(=O)N[C@H](C(=O)N[C@@H](Cc2ccccc2)C[C@H](O)[C@H](Cc2ccccc2)NC(=O)OCc2cncs2)C(C)C)cs1 [Example 47, (2S,3S,5S)-5-(N-(N-((2-(2-Isopropyl-4-thiazolyl)ethoxy)carbonyl)valinyl)amino)-2-(N-((5-thiazolyl)methoxycarbonyl)amino)-1,6-diphenyl-3-hydroxyhexane] | 9 to 24
CC(C)c1nc(COC(=O)N[C@H](C(=O)N[C@@H](Cc2ccccc2)[C@@H](O)C[C@H](Cc2ccccc2)NC(=O)OCc2cncs2)C(C)C)cs1 [Example 6, (2S,3S,5S)-2-(N-(N-((2-Isopropyl-4-thiazolyl)methoxycarbonyl)valinyl)amino)-5-(N-((5-thiazolyl)methoxycarbonyl)amino)-1,6-diphenyl-3-hydroxyhexane] | 6 to 14
CC(C)c1nc(CN(C(=O)N[C@H](C(=O)N[C@@H](Cc2ccccc2)C[C@H](O)[C@H](Cc2ccccc2)NC(=O)OCc2cncs2)C(C)C)C2CC2)cs1 [Example 17, (2S,3S,5S)-5-(N-(N-((N-Cyclopropyl-N-((2-isopropyl-4-thiazolyl)methyl)amino)carbonyl)valinyl)amino)-2-(N-((5-thiazolyl)methoxycarbonyl)amino)-1,6-diphenyl-3-hydroxyhexane] | 230 to 310
CCc1nc(CN(C)C(=O)N[C@H](C(=O)N[C@@H](Cc2ccccc2)C[C@H](O)[C@H](Cc2ccccc2)NC(=O)OCc2cncs2)C(C)C)co1 [Example 41, (2S,3S,5S)-5-(N-(N-((N-Methyl-N-((2-ethyl-4-oxazolyl)methyl)amino)carbonyl)valinyl)amino)-2-(N-((5-thiazolyl)methoxycarbonyl)amino)-1,6-diphenyl-3-hydroxyhexane] | 15 to 20
CC(C)[C@H](NC(=O)N(C)Cc1csc(C2CCC2)n1)C(=O)N[C@@H](Cc1ccccc1)C[C@H](O)[C@H](Cc1ccccc1)NC(=O)OCc1cncs1 [Example 52, (2S,3S,5S)-5-(N-(N-((N-Methyl-N-((2-cyclobutyl-4-thiazolyl)methyl)amino)carbonyl)valinyl)amino)-2-(N-((5-thiazolyl)methoxycarbonyl)amino)-1,6-diphenyl-3-hydroxyhexane] | 35 to 42
CC(C)c1nc(CN(C)C(=O)N[C@@H](C)C(=O)N[C@@H](Cc2ccccc2)C[C@H](O)[C@H](Cc2ccccc2)NC(=O)OCc2ccno2)co1 [Example 57, (2S,3S,5S)-5-(N-(N-((N-Methyl-N-((2-isopropyl-4-oxazolyl)methyl)amino)carbonyl)-L-alaninyl)amino)-2-(N-((5-isoxazolyl)methoxycarbonyl)amino)-1,6-diphenyl-3-hydroxyhexane] | 35 to 48
CC(C)c1nc(CN(C(=O)N[C@@H](C)C(=O)N[C@@H](Cc2ccccc2)C[C@H](O)[C@H](Cc2ccccc2)NC(=O)OCc2cncs2)C2CC2)cs1 [Example 15, (2S,3S,5S)-5-(N-(N-((N-Cyclopropyl-N-((2-isopropyl-4-thiazolyl)methyl)amino)carbonyl)alaninyl)amino)-2-(N-((5-thiazolyl)methoxycarbonyl)amino)-1,6-diphenyl-3-hydroxyhexane] | 430 to 670

same assay, conditions: concentration giving 50% inhibition of the cytopathic effect of HIV; HIV-13B in MT4 cells; read-out: IC50

SMILES | IC50 [nM]
CC(C)c1nc(CN(C)C(=O)N[C@H](C(=O)N[C@@H](Cc2ccccc2)C[C@H](O)[C@H](Cc2ccccc2)NC(=O)OCc2cnco2)C(C)C)cs1 [Example 20] | 11 to 14
